Results: ChEMBL document CHEMBL1159190, “Determination of the active conformation of 6-amino--[(4-diphenylmethyl-1-piperazinyl)methyl-9H-purine]-9-ethanol: a positive inotropic agent” (1993)

What was measured:
[1] = species: Rattus norvegicus; assay: Functional refractory period (FRP) determined in rat atria
[2] = species: Rattus norvegicus; assay: Contractile force determined in rat atria; assay type: functional
[3] = Rattus norvegicus, read-out: EC25

Nc1ncnc2c1ncn2C[C@@]1(O)CC[C@H]2CN(C(c3ccccc3)c3ccccc3)CCN2C1
EC25 [1, 3]: 15 µM | EC25 [2, 3]: 15 µM

Nc1ncnc2c1ncn2C[C@]1(O)CC[C@H]2CN(C(c3ccccc3)c3ccccc3)CCN2C1
EC25 [1, 3]: 1.8 µM | EC25 [2, 3]: 6.5 µM

Nc1ncnc2c1ncn2CC(O)CN1CCN(C(c2ccccc2)c2ccccc2)CC1 (configuration not stated)
EC25 [1, 3]: 0.2 µM | EC25 [2, 3]: 0.5 µM

Nc1ncnc2c1ncn2C1CCCC(N2CCN(C(c3ccccc3)c3ccccc3)CC2)C1O (cis isomer)
EC25 [1]: 17 µM | EC25 [2]: 20 µM

Nc1ncnc2c1ncn2C1CCCC(N2CCN(C(c3ccccc3)c3ccccc3)CC2)C1O (stereo in doubt)
EC25 [1]: 0.9 µM | EC25 [2]: 1.5 µM

Nc1ncnc2c1ncn2C1CCCC(N2CCN(C(c3ccccc3)c3ccccc3)CC2)C1O (trans isomer)
EC25 [1]: 9 µM | EC25 [2]: 1.2 µM
